Data from US4132738A, “Preparation of 15-deoxy-16-hydroxyprostaglandins” (Miles Laboratories, Inc., priority 1978, dated 1979).

What was measured:
Conditions in all cases: comparison in words
[1] = test system: blood pressure and heart rate in the anesthetized cat; test: Effects on blood pressure and heart rate in the anesthetized cat; assay type: in vivo
Method: The acute effects of test compounds on blood pressure and heart rate were determined in cats of either sex anesthetized with a mixture of pentobarbital sodium (35 mg/kg, i.v.) and barbital sodium (100 mg/kg, i.v.). Cannulas were placed in the trachea to allow adequate spontaneous ventilation, in a femoral artery for blood pressure recording with a strain gage transducer, and in a saphenous vein for drug administration.
Heart rate was recorded by means of a cardiotachometer driven by the R wave of the electrocardiogram. After a period of 10 minutes of stable recordings of blood pressure and heart rate, the test compound was administered intravenously at doses increasing from 0.01 to 10.0 mcg/kg, spaced one log and injected at 10 minute intervals. All doses were injected in a volume of 0.1 ml/kg. Modifications of blood pressure and heart rate induced by the test compound were expressed both in absolute units (mmHg and beats/minute) and as percent of values recorded immediately before administration of each dose. Biphasic responses were tabulated in the order in which they occurred. […]
Activity of compounds in this test was judged only on the basis of the degree of hypotension observed. Thus, the ED50 mmHg (dose decreasing blood pressure by 50 mmHg) was calculated graphically, and the compound scored according to the following scale: […]

[2] = test system: rat stomach, rat colon, chick rectum, and rabbit aorta; test: Cascade assay, all four tissues; assay type: cell-based
Method: (§1) The smooth muscle stimulant effects of the test compounds were determined simultaneously in four different tissues that are known to be reactive to naturally occurring prostaglandins. Segments of rat stomach fundus, rat colon, chick rectum and rabbit aortic strip were obtained as described by: Vane, J. R., Brit. J. Pharmacol., 12: 344 (1957); Regoli, D. and Vane, J. R., Brit. J. Pharmacol., 23: 351 (1964); Mann, M. and West, G. B., Brit. J. Pharmacol., 5: 173 (1950); and Furchgott, R. F. and Bhadrakom, R., J. Pharmacol. Exper. Ther., 108: 129 (1953). One end of each preparation was tied to the bottom of a 10 ml tissue chamber and the other to a force displacement transducer (Grass FT-03) for continuous tension recording. The stomach, colon, and rectum segments were stretched to an initial tension of 1 g, while the aortic strip was subjected to 4 g. All preparations were left undisturbed for 1 hour prior to ptesting. The chambers were equipped with an external jacket through which water, maintained at 40° C., was circulated. […]
(§2) Test compounds were diluted from stock solutions so as to administer quantities ranging from 0.0001 to 100,000 ng in a volume of 0.5 ml. […] Maximal increases in tension after each dose were measured and the results were used to plot dose-response curves. […]
(§3) Activity in each tissue was scored according to the following scale: […]

rat colon = test: Cascade assay, rat colon in vitro; assay type: cell-based
Method: as §1, §2, §3

rat stomach = test: Cascade assay, rat stomach fundus in vitro; assay type: cell-based
Method: as §1, §2, §3

Row | SMILES | Feline blood pressure and heart rate value, methyl ester versus carbinol [1] | Cascade values, methyl ester versus carbinol [2] | Cascade colon value, methyl ester versus carbinol (rat colon) | Cascade stomache value, methyl ester versus carbinol (rat stomach)
1 | CCCCC(C)(O)C/C=C/[C@H]1[C@H](O)CC(=O)[C@@H]1CCCCCCC(=O)OC (stereo partly drawn) [TR 4704, Methyl 11α, 16RS-dihydroxy-16-methyl-9-oxoprost-13E-oate, reference compound] | significantly and undesirably higher | significantly and undesirably higher |  | 
2 | CCCCC(O)C/C=C/[C@H]1[C@H](O)CC(=O)[C@@H]1CCCCCCC(=O)OC (stereo partly drawn) [TR 4705, Methyl 11α, 16RS-dihydroxy-9-oxoprost-13E-en-1-oate, reference compound] |  |  | higher | higher
